Broadly, the pIC50 is −log10 of the IC50, conventionally taken in molar units.

pIC50: −log10 of the molar value. Where only a bound is given, the exact number is not on record here.

The source of these data is ChEMBL document CHEMBL4706501, “Drug repurposing: Discovery of troxipide analogs as potent antitumor agents” (Eur J Med Chem, 2020).

Type in all cases: functional, cell-based
One assay relates to PC-3. As to the kind of experiment: Antiproliferative activity against human PC3 cells assessed as reduction in cell viability after 24 to 72 hrs by MTT assay. For orientation: Tetrazolium assays rely on reduction of a dye to a coloured formazan, in cell work by metabolically active cells.
Another assay relates to PC-9. Briefly: Antiproliferative activity against human PC9 cells assessed as reduction in cell viability after 24 to 72 hrs by MTT assay.
The next assay has as its system MGC-803. Briefly: Antiproliferative activity against human MGC-803 cells assessed as reduction in cell viability after 24 to 72 hrs by MTT assay.
Another assay concerns MCF7. As to the kind of experiment: Antiproliferative activity against human MCF7 cells assessed as reduction in cell viability after 24 to 72 hrs by MTT assay.

Regarding `COc1cc(C(=O)NC2CCCNC2)cc(OC)c1OC` (stereo unspecified) [TROXIPIDE], the pIC50 with PC-3, with PC-9, in the assay on MGC-803 and with MCF7 was less than 4.00 throughout.
For the compound `O=c1[nH]cc(F)c(=O)[nH]1` [FLUOROURACIL], the negative-log IC50 (pIC50) in the assay on PC-3 was 5.27; with PC-9, 5.39.
